US8426559B2, “Injectable β-hairpin peptide hydrogel that kills methicillin-resistant Staphylococcus aureus” (University of Delaware, priority 2009, dated 2013)
Non-standard residues stand in square brackets, D forms with d. Residues, ends and D or L forms follow the SMILES beside them.

Experiments:
[1] = system: C3H10t1/2 mesenchymal stem cells; test: Cytotoxicity of hydrogel towards mammalian cells, live/dead viability assay; type: cell-based, murine
Description: The confocal images show live/dead viability assays performed using murine C3H10t1/2 mesenchymal stem cells that had been cultured for 24 h on (A) a 2 wt % MARG1 hydrogel surface and on (B) a TCTP control surface. This cell line was chosen because these cells are sensitive to their environment and thus good indicators of a material's cytotoxic properties.
The images in FIGS. 5A,B are rendered in black and white, where the light areas represent cells that fluoresce green (live cells) and dark areas represent cells that fluoresce red (dead cells).
C3H10t1/2 mesenchymal stem cells (ATCC # CCL-226) were cultured using Dulbecco's Modified Eagle's Medium (DMEM, Sigma Aldrich, D6546) supplemented with 10% Fetal Bovine Serum, 5 mM L-Glutamine, 50 μg/mL Gentamicin at 37° C. in 5% CO2. Cells were cultured in T75 cell culture flasks. Cells were kept in culture for seven passages and used for cellular viability on passage number 7. For cell plating, cells were trypsinized and counted using a hemacytometer. The resultant cell suspension was introduced to the hydrogel and control surfaces such that a cell loading density of 30,000 cells/cm^2 was achieved. These samples were incubated for 24 hours at 37° C., 5% CO2. […]

[2] = system: MRSA (methicillin-resistant Staphylococcus aureus, ATCC 33591); test: Antibacterial assay: bacteria introduced onto hydrogel-coated TCTP surface, proliferation by OD625nm; type: cell-based; conditions: 2 wt % hydrogel on TCTP, 24 hr at 37° C.
Description: The antibacterial activity of MARG1 hydrogels was assessed via two distinct assays. In the first assay, bacteria were introduced to the surface of tissue culture treated polystyrene (TCTP) coated with a ˜1-2 mm layer of the gel and its ability to inhibit bacterial proliferation was assessed. This assay measures the ability of MARG1 gels to thwart new infection at a particular site. Here, gels were formed directly on the polystyrene surface without the aid of shear-thin delivery. In the second assay, MARG1 gels were shear-thin delivered via syringe to agar surfaces infected with bacteria, and the ability of the gel to kill bacteria on contact was measured. […]
The gels were incubated for 24 hr at 37° C., and bacterial proliferation was quantitated by light scattering as described in Salick, D. A.; Kretsinger, J. K.; Pochan, D. J.; Schneider, J. P. J. Am. […]
(§1) For each assay, 100 μL of bacteria-free TSB was introduced onto the surface of the hydrogels. […] After this, bacterial growth was monitored by measuring OD625nm of the liquid above the gel by adding 100 μL of bacteria-free TSB to the surfaces, gently mixing and transferring the supernatant to a cuvette. Corrected OD625nm values were calculated to correct for dilution and to normalize for scattering that occurs for each individual bacterial strain. […]

[3] = system: MSSA (methicillin-susceptible Staphylococcus aureus, ATCC 25923); test: as above; type: cell-based; conditions: 2 wt % hydrogel on TCTP, all bacterial cell loading densities, 24 h, compared to uncoated surface
Description: The antibacterial activity of MARG1 hydrogels was assessed via two distinct assays. In the first assay, bacteria were introduced to the surface of tissue culture treated polystyrene (TCTP) coated with a ˜1-2 mm layer of the gel and its ability to inhibit bacterial proliferation was assessed. This assay measures the ability of MARG1 gels to thwart new infection at a particular site. Here, gels were formed directly on the polystyrene surface without the aid of shear-thin delivery. In the second assay, MARG1 gels were shear-thin delivered via syringe to agar surfaces infected with bacteria, and the ability of the gel to kill bacteria on contact was measured. This assay simulates the introduction of the MARG1 gel via syringe to a bacterial contaminated surface, such as a wound.
Hydrogels for the antibacterial assays were prepared in separate wells of 96-well tissue culture-treated polystyrene plates (Costar 3595). […]
as §1

Molecule	Cytotoxicity towards mammalian cells ([1]; C3H10t1/2 cells cultured 24 h on 2 wt % hydrogel surface)	Viability of cells cultured on hydrogel surface versus TCTP control ([1]; C3H10t1/2 cells, 24 h, 2 wt % hydrogel surface)	MRSA proliferation on hydrogel-coated surface (OD) ([2]; challenged with 2×10^8 CFU/dm^2 MRSA)	MRSA proliferation on hydrogel-coated surface (OD) ([2]; lower CFUs of MRSA)	MSSA proliferation on hydrogel-coated surface (OD) [3]
CC(C)[C@H](N)C(=O)N[C@@H](CCCCN)C(=O)N[C@H](C(=O)N[C@@H](CCCCN)C(=O)N[C@H](C(=O)N[C@@H](CCCNC(=N)N)C(=O)N[C@H](C(=O)N[C@@H](CCCCN)C(=O)N[C@H](C(=O)N1CCC[C@@H]1C(=O)N1CCC[C@H]1C(=O)N[C@H](C(=O)N[C@@H](CCCCN)C(=O)N[C@H](C(=O)N[C@@H](CCCCN)C(=O)N[C@H](C(=O)N[C@@H](CCCNC(=N)N)C(=O)N[C@H](C(=O)N[C@@H](CCCCN)C(=O)N[C@H](C(N)=O)C(C)C)C(C)C)C(C)C)C(C)C)[C@@H](C)O)C(C)C)C(C)C)C(C)C)C(C)C [MARG1, VKVKVRVKV^DPPTKVKVRVKV-NH2] (H-VKVKVRVKV[dP]PTKVKVRVKV-NH2)	non-cytotoxic	no significant difference			
VKVKVKVKV^DPPTKVKVKVKV-NH2 [MAX1]			uninhibited MRSA proliferation	inhibiting MRSA at lower CFUs	can inhibit bacterial proliferation
